Data on 31 compounds can be found in patent publication US9902701B2, “Pyridazones and triazinones for treatment and prophylaxis of hepatitis B virus infection” (priority 2014, dated 2018).

The experiment concerns HBsAg. The experiment in a line: HBsAg assay: chemiluminescence immunoassay (CLIA) of secreted HBsAg in supernatant of HepG2.2.15 cells. The note with it: Hepatitis B virus. The experiment is classed as cell-based, HBV. Here is the method: HepG2.2.15 cells (Acs et al. Proc Natl Acad Sci USA, 84, (1987), 4641-4), a constitutively HBV-expressing cell line were cultured in DMEM+Glutamax-I medium (Invitrogen, Carlsbad, Calif., USA), supplemented with 10% fetal bovine serum (Invitrogen) and G418 (Invitrogen) at a final concentration of 200 mg/L and maintained in 5% CO2 at 37° C.
HepG2.2.15 cells were seeded in duplicate into white, 96-well plates at 1.5×10^4 cells/well. The cells were treated with a three-fold serial dilution series of the compounds in DMSO. The final DMSO concentration in all wells was 1% and DMSO was used as no drug control.
The HBsAg chemiluminescence immunoassay (CLIA) kit (Autobio Diagnostics Co., Zhengzhou, China, Catalog number: CL0310-2) was used to measure the levels of secreted HBV antigens semi-quantitatively. For the detection 50 μL/well culture supernatant was used and HBsAg was quantified using HBsAg chemiluminescence immunoassay (CLIA) kit (Autobio Diagnostics Co., Zhengzhou, China, Catalog number: CL0310-2), 50 μL of the supernatant was transferred to the CLIA assay plate and 50 μL of enzyme conjugate reagent was added into each well. The plates were sealed and gently agitated for 1 hour at room temperature. The supernatant-enzyme-mixture was discarded and wells were washed 6 times with 300 μL of PBS. The residual liquid was removed by plating the CLIA plate […] on absorbent tissue paper. 25 μL of substrates A and B were added to each well. Luminance was measured using a luminometer (Mithras LB 940 Multimode Microplate Reader) after 10 minutes incubation. Dose-response curves were generated and the IC50 value was extrapolated by using the E-WorkBook Suite (ID Business Solutions Ltd., Guildford, UK). The IC50 was defined as the compound concentration (or conditioned media log dilution) at which HBsAg secretion was reduced by 50% compared to the no drug control.
In general, IC50 refers to the concentration that inhibits the measured activity by half. High values mean lower potency, low ones higher potency. In the case of `CN(C(=O)CN1N=C(c2ccc(Cl)cc2)CCC1=O)c1ccc(Cl)cc1` [Example 1-1, N-(4-Chlorophenyl)-2-[3-(4-chlorophenyl)-6-oxo-4,5-dihydropyridazin-1-yl]-N-methyl-acetamide], half-maximal inhibition (IC50) was put at 1580 nM.

For `CN(C(=O)CN1N=C(c2ccc(Cl)cc2)CCC1=O)c1ccc(F)c(C(F)(F)F)c1` [Example 1-2, 2-[3-(4-Chlorophenyl)-6-oxo-4,5-dihydropyridazin-1-yl]-N-[4-fluoro-3-(trifluoromethyl)phenyl]-N-methyl-acetamide], the IC50 was 740 nM.

For `CN(C(=O)CN1N=C(c2ccc(Cl)cc2)CCC1=O)c1ccc(C(F)(F)F)c(F)c1` [Example 1-3, 2-[3-(4-Chlorophenyl)-6-oxo-4,5-dihydropyridazin-1-yl]-N-[3-fluoro-4-(trifluoromethyl)phenyl]-N-methyl-acetamide], the midpoint of inhibition, the IC50, lay at 301 nM.

Regarding `CN(C(=O)CN1N=C(c2ccc(Cl)cc2)CCC1=O)c1ccc(Cl)c(F)c1` [Example 1-4, N-(4-Chloro-3-fluoro-phenyl)-2-[3-(4-chlorophenyl)-6-oxo-4,5-dihydropyridazin-1-yl]-N-methyl-acetamide], 994 nM corresponded to half-maximal inhibition (IC50).

In turn, `COc1cccc(N(C)C(=O)CN2N=C(c3ccc(Cl)cc3)CCC2=O)c1` [Example 1-5, 2-[3-(4-Chlorophenyl)-6-oxo-4,5-dihydropyridazin-1-yl]-N-(3-methoxyphenyl)-N-methyl-acetamide] registered a concentration for half-maximal inhibition (IC50) of 9630 nM.

Consider `CN(C(=O)CN1N=C(c2ccc(Cl)cc2)CCC1=O)c1ccc(F)cc1` [Example 1-6, 2-[3-(4-Chlorophenyl)-6-oxo-4,5-dihydropyridazin-1-yl]-N-(4-fluorophenyl)-N-methyl-acetamide], for which 3630 nM corresponded to half-maximal inhibition (IC50).

`Cc1ccc(N(C)C(=O)CN2N=C(c3ccc(Cl)cc3)CCC2=O)cc1` [Example 1-7, 2-[3-(4-Chlorophenyl)-6-oxo-4,5-dihydropyridazin-1-yl]-N-methyl-N-(p-tolyl)acetamide] registered an IC50 of 2490 nM.

The compound `CN(C(=O)CN1N=C(c2ccc(Cl)cc2)CCC1=O)c1ccc(Cl)c(Cl)c1` [Example 1-8, 2-[3-(4-Chlorophenyl)-6-oxo-4,5-dihydropyridazin-1-yl]-N-(3,4-dichlorophenyl)-N-methyl-acetamide] returned a 50% inhibitory concentration (IC50) of 246 nM.

`CN(C(=O)CN1N=C(c2ccc(Cl)cc2)CCC1=O)c1ccc(C(F)(F)F)cc1` [Example 1-9, 2-[3-(4-Chlorophenyl)-6-oxo-4,5-dihydropyridazin-1-yl]-N-methyl-N-[4-(trifluoromethyl)phenyl]acetamide] displayed an IC50 of 389 nM.

For the compound `CN(C(=O)CN1N=C(c2ccc(Cl)cc2)CCC1=O)c1ccc(C#N)cc1` [Example 1-10, 2-[3-(4-Chlorophenyl)-6-oxo-4,5-dihydropyridazin-1-yl]-N-(4-cyanophenyl)-N-methyl-acetamide], the IC50 came to 5630 nM.

Compound `COC(=O)c1ccc(N(C)C(=O)CN2N=C(c3ccc(Cl)cc3)CCC2=O)cc1` [Example 1-11, Methyl 4-[[2-[3-(4-chlorophenyl)-6-oxo-4,5-dihydropyridazin-1-yl]acetyl]-methyl-amino]benzoate] showed an IC50 of 8740 nM.

Turning to `CC(C)N(C(=O)c1ccc(N(C)C(=O)CN2N=C(c3ccc(Cl)cc3)CCC2=O)cc1)C(C)C` [Example 1-12, 4-[[2-[3-(4-Chlorophenyl)-6-oxo-4,5-dihydropyridazin-1-yl]acetyl]-methyl-amino]-N,N-diisopropyl-benzamide], the IC50 is 885 nM.

With `CN(C(=O)CN1N=C(c2ccc(Cl)cc2)CCC1=O)c1ccc(F)cc1F` [Example 1-13, 2-[3-(4-Chlorophenyl)-6-oxo-4,5-dihydropyridazin-1-yl]-N-(2,4-difluorophenyl)-N-methyl-acetamide], inhibition was half-maximal at 6610 nM (IC50).

For the compound `CCCCCN(C)C(=O)c1ccc(N(C)C(=O)CN2N=C(c3ccc(Cl)cc3)CCC2=O)cc1` [Example 1-14, 4-[[2-[3-(4-Chlorophenyl)-6-oxo-4,5-dihydropyridazin-1-yl]acetyl]-methyl-amino]-N-methyl-N-pentyl-benzamide], the half-inhibitory concentration (IC50) is 3020 nM.

For `CN(C(=O)CN1N=C(c2ccc(Cl)cc2)CCC1=O)c1ccc(C(=O)NC2CCCCC2)cc1` [Example 1-15, 4-[[2-[3-(4-Chlorophenyl)-6-oxo-4,5-dihydropyridazin-1-yl]acetyl]-methyl-amino]-N-cyclohexyl-benzamide], it took 5240 nM to reach half-maximal inhibition (IC50).

Consider `CN(C(=O)CN1N=C(c2ccc(Cl)cc2)CCC1=O)c1ccc(OC(F)(F)F)cc1` [Example 1-16, 2-[3-(4-Chlorophenyl)-6-oxo-4,5-dihydropyridazin-1-yl]-N-methyl-N-[4-(trifluoromethoxy)phenyl]acetamide], for which the IC50 is 3860 nM.

Consider `CN(C(=O)CN1N=C(c2ccc(Cl)cc2)CCC1=O)c1cccc(F)c1` [Example 1-17, 2-[3-(4-Chlorophenyl)-6-oxo-4,5-dihydropyridazin-1-yl]-N-(3-fluorophenyl)-N-methyl-acetamide], for which half-maximal inhibition (IC50) was put at 1170 nM.

In the case of `CN(C(=O)CN1N=C(c2ccc(Cl)cc2)CCC1=O)c1cccc(Cl)c1` [Example 1-18, N-(3-Chlorophenyl)-2-[3-(4-chlorophenyl)-6-oxo-4,5-dihydropyridazin-1-yl]-N-methyl-acetamide], the half-maximal inhibitory concentration (IC50) stood at 900 nM.

`CN(C(=O)CN1N=C(c2ccc(Cl)cc2)CCC1=O)c1cccc(C(F)(F)F)c1` [Example 1-19, 2-[3-(4-Chlorophenyl)-6-oxo-4,5-dihydropyridazin-1-yl]-N-methyl-N-[3-(trifluoromethyl)phenyl]acetamide] registered an IC50 of 1000 nM. This IC50 and that of the compound before are within 1.5-fold of each other.

The compound `COc1ccc(N(C)C(=O)CN2N=C(c3ccc(Cl)cc3)CCC2=O)cc1` [Example 1-20, 2-[3-(4-Chlorophenyl)-6-oxo-4,5-dihydropyridazin-1-yl]-N-(4-methoxyphenyl)-N-methyl-acetamide] had an IC50 of 5690 nM. Compared with the last compound, the IC50 is about 5.7-fold higher.

With `Cc1cccc(N(C)C(=O)CN2N=C(c3ccc(Cl)cc3)CCC2=O)c1` [Example 1-21, 2-[3-(4-Chlorophenyl)-6-oxo-4,5-dihydropyridazin-1-yl]-N-methyl-N-(m-tolyl)acetamide], the half-inhibitory concentration (IC50) was 2080 nM. This IC50 lies about 2.7-fold lower than the previous one.

In turn, `CN(C(=O)CN1N=C(c2ccc(Cl)c(F)c2)CCC1=O)c1ccc(F)cc1` [Example 1-22, 2-[3-(4-Chloro-3-fluoro-phenyl)-6-oxo-4,5-dihydropyridazin-1-yl]-N-(4-fluorophenyl)-N-methyl-acetamide] gave an IC50 of 940 nM.

`CN(C(=O)CN1N=C(c2ccc(Cl)c(F)c2)CCC1=O)c1cccc(F)c1` [Example 1-23, 2-[3-(4-Chloro-3-fluoro-phenyl)-6-oxo-4,5-dihydropyridazin-1-yl]-N-(3-fluorophenyl)-N-methyl-acetamide]: the IC50 stood at 460 nM.

As to `CN(C(=O)CN1N=C(c2ccc(Cl)c(F)c2)CCC1=O)c1cccc(Cl)c1` [Example 1-24, 2-[3-(4-Chloro-3-fluoro-phenyl)-6-oxo-4,5-dihydropyridazin-1-yl]-N-(3-chlorophenyl)-N-methyl-acetamide], inhibition was half-maximal at 168 nM (IC50). This IC50 is about 2.7-fold lower than that of the compound before.

As to `CN(C(=O)CN1N=C(c2ccc(Cl)c(F)c2)CCC1=O)c1ccc(C(F)(F)F)cc1` [Example 1-25, 2-[3-(4-Chloro-3-fluoro-phenyl)-6-oxo-4,5-dihydropyridazin-1-yl]-N-methyl-N-[4-(trifluoromethyl)phenyl]acetamide], 240 nM corresponded to half-maximal inhibition (IC50).

`Cc1cc(Cl)ccc1C1=NN(CC(=O)N(C)c2ccc(Cl)cc2)C(=O)CC1` [Example 1-26, 2-[3-(4-Chloro-2-methylphenyl)-6-oxo-4,5-dihydropyridazin-1-yl]-N-(4-chlorophenyl)-N-methyl-acetamide] had an IC50 of 1880 nM.

On to `Cc1cc(Cl)ccc1C1=NN(CC(=O)N(C)c2cccc(Cl)c2)C(=O)CC1` [Example 1-27, 2-[3-(4-Chloro-2-methyl-phenyl)-6-oxo-4,5-dihydropyridazin-1-yl]-N-(3-chlorophenyl)-N-methyl-acetamide], for which the 50% inhibitory concentration (IC50) turned out to be 814 nM.

Consider `Cc1cc(Cl)ccc1C1=NN(CC(=O)N(C)c2cccc(F)c2)C(=O)CC1` [Example 1-28, 2-[3-(4-Chloro-2-methyl-phenyl)-6-oxo-4,5-dihydropyridazin-1-yl]-N-(3-fluorophenyl)-N-methyl-acetamide], for which the IC50 came to 4590 nM. Compared with the last compound, the IC50 is about 5.6-fold higher.

On to `Cc1cc(Cl)ccc1C1=NN(CC(=O)N(C)c2cccc(C(F)(F)F)c2)C(=O)CC1` [Example 1-29, 2-[3-(4-Chloro-2-methylphenyl)-6-oxo-4,5-dihydropyridazin-1-yl]-N-methyl-N-[3-(trifluoromethyl)phenyl]acetamide], for which the midpoint of inhibition, the IC50, lay at 483 nM.

With `CN(C(=O)CN1N=C(c2ccc(F)cc2F)CCC1=O)c1ccc(C(F)(F)F)cc1` [Example 1-30, 2-[3-(2,4-Difluorophenyl)-6-oxo-4,5-dihydropyridazin-1-yl]-N-methyl-N-[4-(trifluoromethyl)phenyl]acetamide], the IC50 was 402 nM.

Consider `CN(C(=O)CN1N=C(c2ccc(F)cc2F)CCC1=O)c1cccc(C(F)(F)F)c1` [Example 1-31, 2-[3-(2,4-Difluorophenyl)-6-oxo-4,5-dihydropyridazin-1-yl]-N-methyl-N-[3-(trifluoromethyl)phenyl]acetamide], for which the 50% inhibitory concentration (IC50) was 830 nM.
